{"source": "patent US20250154686A1", "about": "“COMPOUND LIBRARY” (CHUGAI SEIYAKU KABUSHIKI KAISHA, priority 2021, published 2025)", "target": "T1, Bcl-2 protein (Recombinant Human Bcl-2 Protein) (Homo sapiens, UniProt P10415)", "T1 construct": "purchased Novus Biologicals NBP2-34889", "T1 sequence (P10415 whole entry)": "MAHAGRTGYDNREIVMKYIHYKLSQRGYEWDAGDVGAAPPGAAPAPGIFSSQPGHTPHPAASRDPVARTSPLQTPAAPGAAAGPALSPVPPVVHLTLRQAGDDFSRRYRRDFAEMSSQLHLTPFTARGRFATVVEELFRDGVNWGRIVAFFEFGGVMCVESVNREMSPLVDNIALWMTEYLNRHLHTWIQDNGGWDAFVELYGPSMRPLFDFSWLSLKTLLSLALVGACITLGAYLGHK", "assay": "AS-MS evaluation of binding of the Example 4 mixture library (1200 compounds/well) to Bcl-2, ASMS ratio (%)", "conditions": "mixture library, value belongs to the MS peak assigned to the compound; for ASMS ratio (%) n = 1: replicate n = 1; for ASMS ratio (%) n = 2: replicate n = 2", "how_it_was_run": "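A pooled 1200-compound mixture (20 nM each final) was incubated with 20 μM recombinant human Bcl-2 in pH 7.4 Tris-HCl buffer with NaCl, Tween-20 and DTT for 1 h at 23° C. in the dark. Bound ligands were separated by spin-column SEC and measured by reverse-phase LC/MS; ASMS ratio (%) was calculated against protein-free unfiltered standard and protein-free SEC blank.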", "data": [{"smiles": "CCOc1cncc(-c2ccc(C(=O)N3CCN(c4ccc(C(=O)NS(=O)(=O)C(C)(C)C)cc4)CC3)cc2F)c1", "note": "[Compound B2L028-01, N-tert-Butylsulfonyl-4-[4-[4-(5-ethoxypyridin-3-yl)-3-fluorobenzoyl]piperazin-1-yl]benzamide]", "values": [{"measurement": "ASMS ratio (%) n = 1", "value": 0.0, "unit": "%"}, {"measurement": "ASMS ratio (%) n = 2", "value": 0.0, "unit": "%"}]}, {"smiles": "CCOc1cccc(C#Cc2ccccc2C(=O)N2CCN(c3ccc(C(=O)NS(=O)(=O)C(C)(C)C)cc3)CC2)c1", "note": "[Compound B2L029-01, N-tert-Butylsulfonyl-4-[4-[2-[2-(3-ethoxyphenyl)ethynyl]benzoyl]piperazin-1-yl]benzamide]", "values": [{"measurement": "ASMS ratio (%) n = 1", "value": 0.0, "unit": "%"}]}, {"smiles": "CCOc1cncc(C#Cc2ccccc2C(=O)N2CCN(c3ccc(C(=O)NS(=O)(=O)C(C)(C)C)cc3)CC2)c1", "note": "[Compound B2L030-01, N-tert-Butylsulfonyl-4-[4-[2-[2-(5-ethoxypyridin-3-yl)ethynyl]benzoyl]piperazin-1-yl]benzamide]", "values": [{"measurement": "ASMS ratio (%) n = 1", "value": 0.0, "unit": "%"}, {"measurement": "ASMS ratio (%) n = 2", "value": 0.0, "unit": "%"}]}, {"smiles": "CCOc1cccc(C#Cc2cncc(C(=O)N3CCN(c4ccc(C(=O)NS(=O)(=O)C(C)(C)C)cc4)CC3)c2)c1", "note": "[Compound B2L031-01, N-tert-Butylsulfonyl-4-[4-[5-[2-(3-ethoxyphenyl)ethynyl]pyridine-3-carbonyl]piperazin-1-yl]benzamide]", "values": [{"measurement": "ASMS ratio (%) n = 1", "value": 0.0, "unit": "%"}, {"measurement": "ASMS ratio (%) n = 2", "value": 0.0, "unit": "%"}]}, {"smiles": "CCOc1cncc(C#Cc2cncc(C(=O)N3CCN(c4ccc(C(=O)NS(=O)(=O)C(C)(C)C)cc4)CC3)c2)c1", "note": "[Compound B2L032-01, N-tert-Butylsulfonyl-4-[4-[5-[2-(5-ethoxypyridin-3-yl)ethynyl]pyridine-3-carbonyl]piperazin-1-yl]benzamide]", "values": [{"measurement": "ASMS ratio (%) n = 1", "value": 0.0, "unit": "%"}, {"measurement": "ASMS ratio (%) n = 2", "value": "−1.0", "unit": "%"}]}, {"smiles": "CCOc1cccc(-c2ccccc2CCC(=O)N2CCN(c3ccc(C(=O)NS(=O)(=O)C(C)(C)C)cc3)CC2)c1", "note": "[Compound B2L033-01, N-tert-Butylsulfonyl-4-[4-[3-[2-(3-ethoxyphenyl)phenyl]propanoyl]piperazin-1-yl]benzamide]", "values": [{"measurement": "ASMS ratio (%) n = 1", "value": 0.0, "unit": "%"}, {"measurement": "ASMS ratio (%) n = 2", "value": 0.0, "unit": "%"}]}, {"smiles": "CCOc1cncc(-c2ccccc2CCC(=O)N2CCN(c3ccc(C(=O)NS(=O)(=O)C(C)(C)C)cc3)CC2)c1", "note": "[Compound B2L034-01, N-tert-Butylsulfonyl-4-[4-[3-[2-(5-ethoxypyridin-3-yl)phenyl]propanoyl]piperazin-1-yl]benzamide]", "values": [{"measurement": "ASMS ratio (%) n = 1", "value": 1.6, "unit": "%"}, {"measurement": "ASMS ratio (%) n = 2", "value": 3.5, "unit": "%"}]}, {"smiles": "CCOc1cccc(-c2ccc(C(=O)N3CCN(c4ccc(C(=O)NS(=O)(=O)C(C)(C)C)cc4)CC3)c3ccccc23)c1", "note": "[Compound B2L035-01, N-tert-Butylsulfonyl-4-[4-[4-(3-ethoxyphenyl)naphthalene-1-carbonyl]piperazin-1-yl]benzamide]", "values": [{"measurement": "ASMS ratio (%) n = 1", "value": 0.0, "unit": "%"}]}, {"smiles": "CCOc1cncc(-c2ccc(C(=O)N3CCN(c4ccc(C(=O)NS(=O)(=O)C(C)(C)C)cc4)CC3)c3ccccc23)c1", "note": "[Compound B2L036-01, N-tert-Butylsulfonyl-4-[4-[4-(5-ethoxypyridin-3-yl)naphthalene-1-carbonyl]piperazin-1-yl]benzamide]", "values": [{"measurement": "ASMS ratio (%) n = 1", "value": 0.0, "unit": "%"}, {"measurement": "ASMS ratio (%) n = 2", "value": 0.0, "unit": "%"}]}, {"smiles": "CCOc1cccc(-c2cc(C(=O)N3CCN(c4ccc(C(=O)NS(=O)(=O)C(C)(C)C)cc4)CC3)cc(C(C)(C)C)c2)c1", "note": "[Compound B2L037-01, 4-[4-[3-tert-Butyl-5-(3-ethoxyphenyl)benzoyl]piperazin-1-yl]-N-tert-butylsulfonylbenzamide]", "values": [{"measurement": "ASMS ratio (%) n = 1", "value": 0.0, "unit": "%"}, {"measurement": "ASMS ratio (%) n = 2", "value": 0.0, "unit": "%"}]}, {"smiles": "CCOc1cncc(-c2cc(C(=O)N3CCN(c4ccc(C(=O)NS(=O)(=O)C(C)(C)C)cc4)CC3)cc(C(C)(C)C)c2)c1", "note": "[Compound B2L038-01, 4-[4-[3-tert-Butyl-5-(5-ethoxypyridin-3-yl)benzoyl]piperazin-1-yl]-N-tert-butylsulfonylbenzamide]", "values": [{"measurement": "ASMS ratio (%) n = 1", "value": 0.0, "unit": "%"}, {"measurement": "ASMS ratio (%) n = 2", "value": 0.0, "unit": "%"}]}, {"smiles": "CCOc1cccc(-c2cc(C(=O)N3CCN(c4ccc(C(=O)NS(=O)(=O)C(C)(C)C)cc4)CC3)cc(C(F)(F)F)c2)c1", "note": "[Compound B2L039-01, N-tert-Butylsulfonyl-4-[4-[3-(3-ethoxyphenyl)-5-(trifluoromethyl)benzoyl]piperazin-1-yl]benzamide]", "values": [{"measurement": "ASMS ratio (%) n = 1", "value": 0.0, "unit": "%"}, {"measurement": "ASMS ratio (%) n = 2", "value": 0.0, "unit": "%"}]}, {"smiles": "CCOc1cncc(-c2cc(C(=O)N3CCN(c4ccc(C(=O)NS(=O)(=O)C(C)(C)C)cc4)CC3)cc(C(F)(F)F)c2)c1", "note": "[Compound B2L040-01, N-tert-Butylsulfonyl-4-[4-[3-(5-ethoxypyridin-3-yl)-5-(trifluoromethyl)benzoyl]piperazin-1-yl]benzamide]", "values": [{"measurement": "ASMS ratio (%) n = 1", "value": "−0.2", "unit": "%"}, {"measurement": "ASMS ratio (%) n = 2", "value": 1.0, "unit": "%"}]}, {"smiles": "CCOc1cccc(C#Cc2cc(C(=O)N3CCN(c4ccc(C(=O)NS(=O)(=O)C(C)(C)C)cc4)CC3)cc(C(F)(F)F)c2)c1", "note": "[Compound B2L041-01, N-tert-Butylsulfonyl-4-[4-[3-[2-(3-ethoxyphenyl)ethynyl]-5-(trifluoromethyl)benzoyl]piperazin-1-yl]benzamide]", "values": [{"measurement": "ASMS ratio (%) n = 1", "value": 0.0, "unit": "%"}]}, {"smiles": "CCOc1cncc(C#Cc2cc(C(=O)N3CCN(c4ccc(C(=O)NS(=O)(=O)C(C)(C)C)cc4)CC3)cc(C(F)(F)F)c2)c1", "note": "[Compound B2L042-01, N-tert-Butylsulfonyl-4-[4-[3-[2-(5-ethoxypyridin-3-yl)ethynyl]-5-(trifluoromethyl)benzoyl]piperazin-1-yl]benzamide]", "values": [{"measurement": "ASMS ratio (%) n = 1", "value": 0.0, "unit": "%"}, {"measurement": "ASMS ratio (%) n = 2", "value": 0.0, "unit": "%"}]}, {"smiles": "CCOc1cccc(-c2cnn(-c3cc(C(=O)N4CCN(c5ccc(C(=O)NS(=O)(=O)C(C)(C)C)cc5)CC4)cc(C(F)(F)F)c3)c2)c1", "note": "[Compound B2L043-01, N-tert-Butylsulfonyl-4-[4-[3-[4-(3-ethoxyphenyl)pyrazol-1-yl]-5-(trifluoromethyl)benzoyl]piperazin-1-yl]benzamide]", "values": [{"measurement": "ASMS ratio (%) n = 1", "value": 0.0, "unit": "%"}, {"measurement": "ASMS ratio (%) n = 2", "value": 0.0, "unit": "%"}]}, {"smiles": "CCOc1cncc(-c2cnn(-c3cc(C(=O)N4CCN(c5ccc(C(=O)NS(=O)(=O)C(C)(C)C)cc5)CC4)cc(C(F)(F)F)c3)c2)c1", "note": "[Compound B2L044-01, N-tert-Butylsulfonyl-4-[4-[3-[4-(5-ethoxypyridin-3-yl)pyrazol-1-yl]-5-(trifluoromethyl)benzoyl]piperazin-1-yl]benzamide]", "values": [{"measurement": "ASMS ratio (%) n = 1", "value": 0.0, "unit": "%"}, {"measurement": "ASMS ratio (%) n = 2", "value": 0.0, "unit": "%"}]}, {"smiles": "CCOc1cccc(-c2ccccc2CN2CCN(c3ccc(C(=O)NS(=O)(=O)C(C)(C)C)cc3)CC2)c1", "note": "[Compound B2L045-01, N-tert-Butylsulfonyl-4-[4-[[2-(3-ethoxyphenyl)phenyl]methyl]piperazin-1-yl]benzamide]", "values": [{"measurement": "ASMS ratio (%) n = 1", "value": 0.0, "unit": "%"}, {"measurement": "ASMS ratio (%) n = 2", "value": 0.0, "unit": "%"}]}, {"smiles": "CCOc1cncc(-c2ccccc2CN2CCN(c3ccc(C(=O)NS(=O)(=O)C(C)(C)C)cc3)CC2)c1", "note": "[Compound B2L046-01]", "values": [{"measurement": "ASMS ratio (%) n = 1", "value": 0.0, "unit": "%"}, {"measurement": "ASMS ratio (%) n = 2", "value": 0.0, "unit": "%"}]}, {"smiles": "CCOc1cccc(-c2ccc(CN3CCN(c4ccc(C(=O)NS(=O)(=O)C(C)(C)C)cc4)CC3)cc2C)c1", "note": "[Compound B2L047-01, N-tert-Butylsulfonyl-4-[4-[[4-(3-ethoxyphenyl)-3-methylphenyl]methyl]piperazin-1-yl]benzamide]", "values": [{"measurement": "ASMS ratio (%) n = 1", "value": 0.0, "unit": "%"}, {"measurement": "ASMS ratio (%) n = 2", "value": 0.0, "unit": "%"}]}, {"smiles": "CCOc1cncc(-c2ccc(CN3CCN(c4ccc(C(=O)NS(=O)(=O)C(C)(C)C)cc4)CC3)cc2C)c1", "note": "[Compound B2L048-01, N-tert-Butylsulfonyl-4-[4-[[4-(5-ethoxypyridin-3-yl)-3-methylphenyl]methyl]piperazin-1-yl]benzamide]", "values": [{"measurement": "ASMS ratio (%) n = 1", "value": 3.9, "unit": "%"}, {"measurement": "ASMS ratio (%) n = 2", "value": "−5.0", "unit": "%"}]}, {"smiles": "CCOc1cccc(-c2ccc(CN3CCN(c4ccc(C(=O)NS(=O)(=O)C(C)(C)C)cc4)CC3)c(CC)c2)c1", "note": "[Compound B2L049-01, N-tert-Butylsulfonyl-4-[4-[[4-(3-ethoxyphenyl)-2-ethylphenyl]methyl]piperazin-1-yl]benzamide]", "values": [{"measurement": "ASMS ratio (%) n = 2", "value": 0.0, "unit": "%"}]}, {"smiles": "CCOc1cncc(-c2ccc(CN3CCN(c4ccc(C(=O)NS(=O)(=O)C(C)(C)C)cc4)CC3)c(CC)c2)c1", "note": "[Compound B2L050-01, N-tert-Butylsulfonyl-4-[4-[[4-(5-ethoxypyridin-3-yl)-2-ethylphenyl]methyl]piperazin-1-yl]benzamide]", "values": [{"measurement": "ASMS ratio (%) n = 1", "value": 0.0, "unit": "%"}, {"measurement": "ASMS ratio (%) n = 2", "value": 0.0, "unit": "%"}]}, {"smiles": "CCOc1cccc(-c2ccc(CN3CCN(c4ccc(C(=O)NS(=O)(=O)C(C)(C)C)cc4)CC3)cc2F)c1", "note": "[Compound B2L051-01, N-tert-Butylsulfonyl-4-[4-[[4-(3-ethoxyphenyl)-3-fluorophenyl]methyl]piperazin-1-yl]benzamide]", "values": [{"measurement": "ASMS ratio (%) n = 1", "value": 0.0, "unit": "%"}, {"measurement": "ASMS ratio (%) n = 2", "value": 0.0, "unit": "%"}]}, {"smiles": "CCOc1cncc(-c2ccc(CN3CCN(c4ccc(C(=O)NS(=O)(=O)C(C)(C)C)cc4)CC3)cc2F)c1", "note": "[Compound B2L052-01, N-tert-Butylsulfonyl-4-[4-[[4-(5-ethoxypyridin-3-yl)-3-fluorophenyl]methyl]piperazin-1-yl]benzamide]", "values": [{"measurement": "ASMS ratio (%) n = 1", "value": 2.7, "unit": "%"}, {"measurement": "ASMS ratio (%) n = 2", "value": 1.0, "unit": "%"}]}, {"smiles": "CCOc1cccc(-c2ccc(CN3CCN(c4ccc(C(=O)NS(=O)(=O)C(C)(C)C)cc4)CC3)c(OC)c2)c1", "note": "[Compound B2L053-01]", "values": [{"measurement": "ASMS ratio (%) n = 1", "value": 0.0, "unit": "%"}, {"measurement": "ASMS ratio (%) n = 2", "value": 0.0, "unit": "%"}]}]}
